# Source: patent US10201590B2, “Treatment of ocular disorders with anti-connexin proteins and mimetics” (CoDa Therapeutics, Inc., priority 2005, dated 2019)
# “Also recorded” adds a separate entry of the source.
# Experiments:
# connexin hemichannels = target: T1, connexin hemichannels (Rattus norvegicus, UniProt P08050); assay: Blockage of dye (Lucifer Yellow) uptake by cells in spinal cord slices; format: cell-based; conditions: 500 micromolar peptide, slices incubated four hours, then Lucifer Yellow 30 minutes
# T1 construct: leads to the expression of connexin hemichannels; from tissue; host or cells: rat (Wistar p7) spinal cord, 500 micron slices in culture
# T1 sequence (P08050 2-382): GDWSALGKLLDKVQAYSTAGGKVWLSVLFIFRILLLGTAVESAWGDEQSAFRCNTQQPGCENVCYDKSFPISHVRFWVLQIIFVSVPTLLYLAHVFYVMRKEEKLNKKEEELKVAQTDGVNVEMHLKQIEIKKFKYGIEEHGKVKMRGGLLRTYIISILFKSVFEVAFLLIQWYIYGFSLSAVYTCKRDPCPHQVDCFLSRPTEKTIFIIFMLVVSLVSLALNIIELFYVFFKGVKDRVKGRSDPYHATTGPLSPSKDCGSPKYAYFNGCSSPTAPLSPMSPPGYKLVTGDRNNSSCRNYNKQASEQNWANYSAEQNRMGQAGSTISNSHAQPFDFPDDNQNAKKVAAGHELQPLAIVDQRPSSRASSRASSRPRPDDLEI
# Experimental: Two functional tests were carried out using peptides. These functional test were (i) blockage of dye (Lucifer Yellow) uptake by cells in spinal cord slices, and (ii) prevention of oedema in spinal cord segments (using connexin 43 specific antisense as a positive control). All peptides used were synthesised by Sigma-Genosys (Australia).
# Lucifer Yellow is a small water soluble, fixable, dye able to pass from cell to cell via gap junction channels, but not across the cell membrane. The addition of Lucifer Yellow to the extracellular medium makes it is possible to check for the presence of open gap junction hemichannels. The dye will appear in the cytoplasm of cells which are expressing open channels.
# Wistar p7 rats were anesthetized with carbon dioxide and immediately decapitated. The spinal cord was excised and transferred to cold Hank's balanced salt solution (HBSS) at pH 7.4. Excess branch nerves and ligaments were removed and the cord transferred to a manual tissue chopper and a series of 500 micron thick slices cut. The damage caused by the slicing induces connexin 43 upregulation through the entire slice (exacerbated by the gap junction mediated bystander effect), and leads to the expression of connexin hemichannels. Slices were placed onto 3 cm diameter Millipore inserts in 24 well plates and cultured in the presence of mimetic peptides in the media. The final concentration for all 9 peptides tested was 500 micromolar. Controls were; no peptide added, or with 1% ethanol or 1% DMSO added as some peptides were re-dissolved in these compounds (peptides were received lyophilised). Some slices were also treated at this time with connexin 43 specific antisense oligodeoxynucleotides in 30% Pluronic F-127 gel or with gel only, as control experiments.
# Slices were incubated for four hours at 37 degrees C., and then 2.5 mg per ml Lucifer Yellow was added to each well for 30 minutes (in the dark). The tissues were then rinsed twice in PBS, with three further 10 minute washes, and the slices fixed with 4% paraformaldehyde. They were then viewed using a Leica TCS4D laser scanning confocal microscope to assess dye uptake into cells, or not.
# spinal cord segments = assay: Prevention of oedema (swelling) in cultured spinal cord segments; format: cell-based, rat; conditions: for % swelling of cord segments: 500 micromolar peptide, 24 hours, control segments 21-23%
# Experimental: FIGS. 1A and 1B show rat spinal cord segments 24 hours after placing into organotypic culture. In the control cord (FIG. 1A) significant swelling is observed at the cut ends (dotted lines mark the original cuts).
# In both cases, the oedema can be blocked using antisense oligodexoynucleotides (ODNs) which prevent translation of the gap junction protein Connexin 43 (FIG. 1B).
# The system described in Example 1 was used to examine the effects of the peptides VDCFLSRPTEKT (SEQ ID NO:35) and SRPTEKTIFII (SEQ ID NO:36) on cultured spinal cord segments to test their ability to block swelling.
# The peptide QQPGCENVCYDK (SEQ ID NO:39) was used a negative control because it allowed dye uptake in the slice cultures described above, and was thus believed to not be able to block oedema in the segments. DMSO was again used as an additional control.
# 5 mm long spinal cord segments were placed in separate wells of a 24 well plate in HBSS. The segments were held to the bottom of the well using a small drop of Superglue. The HBSS was removed and 500 micromolar peptide (final concentration) added to media (no peptide for media alone or DMSO controls). The plates were incubated for 24 hours, the media removed and the tissue fixed with Bouin's fixative for 24 hours. Analysis involved photographing cord segments from above, with Image J used to calculate the total area of the cord segment compared with the area of swelling at the cut ends of the segments. Swelling (oedema) was calculated as (cultured area−original area divided by original area) to give % swelling. Single factor Analysis of Variance was used to determine statistical significance, with cut-off level for significance at p=0.05.
# In this case a dose response was determined with final concentration of peptides used at 5, 10, 50 250 and 500 micromolar.
# [1] = tested on: glial fibrillary acidic protein (GFAP) expression; assay: Immunohistochemical analysis of GFAP (astrocytosis) in spinal cord segments; format: cell-based, rat; conditions: for Area of GFAP label: 24 hours, control 2450
# Experimental: Table 7: Areas of GFAP label in images taken in spinal cord 24 hours after slicing. Control cords have high levels of GFAP indicating an inflammatory response and greater bystander effect than the treated segments.
# connexin 43 hemichannels = assay: Perinatal sheep model of cerebral ischaemia, i.c.v. infusion of mimetic peptide; format: in vivo
# Experimental: The infusion in these animals was continued until 72 h after ischaemia. […] Seizures resolved by approximately 48 h.
# Dosages of about 5 μmol/kg brain, 50 μmol/kg and 250 μmol/kg brain weight are also possible. For intravenous (systemic delivery) the effect of log-order increases in plasma concentrations can be used to determine an appropriate dose, starting with loading doses to achieve 0.5 μmol/L (mean fetal blood volume is approximately 350 ml in our perinetal sheep at this age), then 5, 10, 50, 250, 500 and 5000 μM.
# A Romney-Suffolk cross fetal sheep was instrumented between 117 to 124 days of gestation (0.85 term) under general anaesthesia as described elsewhere in detail (Gerrits et al, Pediatr Res 57(3):342-6, (2005); Guan et al., Neuroscience 95(3):831-839, (1999); Guan et al., J Cereb Blood Flow Metab 21(5):493-502, (2001); Gunn et al., J Clin Invest 99(2):248-256, (1997), Gunn et al., Pediatrics 102(5):1098-1106, (1998), Gunn et al., Pediatr Res 46(3):274-280, (1999); Roelfsema et al., J Cereb Blood Flow Metab 24(8):877-886, (2004)). Instrumentation included brachial artery and vein catheters, EKG electrodes, an inflatable occluder around a fetal carotid artery (Gunn et al., 1997; Roelfsema et al., 2004), parietal EEG electrodes 5 and 15 mm anterior, and 10 mm lateral to bregma, a pair of electrodes placed lateral to these to measure cortical impedance (a measure of cytotoxic oedema (Gunn et al., 1997) and a 17-mm-long left i.c.v. cannula 4 mm anterior and 6 mm lateral to bregma. The instrumentation was exteriorised to the maternal flank, uterine and abdominal walls closed, and fetal vascular catheters heparinised (20 IU/ml). The maternal wound was infiltrated with a long acting local anaesthetic bupivacaine (100 mg/20 ml).
# After 5 days recovery, fetal cerebral hypoperfusion was induced by a 30 minute period of bilateral carotid artery occlusion (Gunn et al., 1997; Roelfsema et al., 2004; Tan et al., Ann Neurol 32(5):677-682, (1992); Tan et al., Pediatr Res 39(5):791-797, (1996)). […]
# [2] = near-term fetal sheep, i.c.v. infusion from 90 min after 30 min ischaemia until 72 h
sequence,measurement,setting,value
"FEVAFLLIQWI [connexin 43 mimetic peptide, M3 & E2]",dye (Lucifer Yellow) uptake / block of hemichannels,connexin hemichannels,comparable with control slices
"LGTAVESAWGDEQ [connexin 43 mimetic peptide, M1 & E1]",dye (Lucifer Yellow) uptake / block of hemichannels,connexin hemichannels,comparable with control slices
"LLIQWYIGFSL [connexin 43 mimetic peptide, E2]",dye (Lucifer Yellow) uptake / block of hemichannels,connexin hemichannels,comparable with control slices
"QQPGCENVCYDK [connexin 43 mimetic peptide, E1; used as negative control]",% swelling of cord segments,spinal cord segments,23%
same,dye (Lucifer Yellow) uptake / block of hemichannels,connexin hemichannels,comparable with control slices; also recorded: did not block hemichannels
"QSAFRCNTQQPG [connexin 43 mimetic peptide, E1]",dye (Lucifer Yellow) uptake / block of hemichannels,connexin hemichannels,comparable with control slices
"SLSAVYTCKRDPCPHQ [connexin 43 mimetic peptide, E2]",dye (Lucifer Yellow) uptake / block of hemichannels,connexin hemichannels,comparable with control slices
"SRPTEKTIFII [connexin 43 mimetic peptide, E2 & M4]",Area of GFAP label,[1]; 5 micromolar,300 square units
same,Area of GFAP label,[1]; 50 micromolar,950 square units
same,Area of GFAP label,[1]; 250 micromolar,1000 square units
same,Area of GFAP label,[1]; 500 micromolar,750 square units
same,astrocytosis (GFAP expression),[1]; 24 hours in culture,reduced astrocytosis
same,most effective concentration at preventing the inflammatory response (GFAP),[1]; 24 hours in culture,5 µM
same,effect in perinatal sheep experiment,"connexin 43 hemichannels; 5 μmol/kg brain weight in 1 ml artificial CSF i.c.v. over one hour, then 1 ml per day for 72 hours",significant effect
same,"cortical impedance (cell swelling, cytotoxic oedema)",connexin 43 hemichannels; [2],markedly delayed and attenuated rise in cerebral impedance
same,seizures after cerebral ischaemia,connexin 43 hemichannels; [2],"changed seizures from continuous to a later onset of discrete, separate seizure events"
same,blocking of oedema at middle range concentration,"spinal cord segments; 50 micromolar, repeat experiments",somewhat less effective
same,% swelling of cord segments,spinal cord segments,17%
same,most effective concentration for blocking of oedema (least oedema),"spinal cord segments; dose response 5, 10, 50 250 and 500 micromolar, vs media alone p=0.001",5 µM
same,dye (Lucifer Yellow) uptake / block of hemichannels,connexin hemichannels,block hemichannels
same,dye (Lucifer Yellow) uptake / block of hemichannels,connexin hemichannels; listed as SEQ ID NO: 36,capable of preventing and/or blocking and/or closing the opening of the hemichannels
"VCYDKSFPISHVR [connexin 43 mimetic peptide, E1]",dye (Lucifer Yellow) uptake / block of hemichannels,connexin hemichannels,comparable with control slices
"VDCFLSRPTEKT [connexin 43 mimetic peptide, E2]",% swelling of cord segments,spinal cord segments,15%
same,dye (Lucifer Yellow) uptake / block of hemichannels,connexin hemichannels,block hemichannels
same,dye (Lucifer Yellow) uptake / block of hemichannels,connexin hemichannels; listed as SEQ ID NO: 35,capable of preventing and/or blocking and/or closing the opening of the hemichannels
